For one compound, LC50 results are on record in ChEMBL document CHEMBL1155554, “(2R,3R,7Z)-2-Aminotetradec-7-ene-1,3-diol, a new amino alcohol from the caribbean sponge Haliclona vansoesti” (J Nat Prod, 2000).

Converted amounts (≈) assume the structure as drawn.

The nature of this data set: Toxicity in brine shrimp. Type of data set: organism-based. The following applies: artemia, in vivo; read-out: LD50 (the source's name).

Turning to `CCCCCC/C=C\CCC[C@@H](O)[C@H](N)CO`, the LC50 was found to be 9 µg/mL (≈ 37 µM).
